# Results: patent publication US20050130232A1, “Methods of screening for compounds that modulate hormone receptor activity” (Allergan, Inc., priority 2001, published 2005)
# Legend:
# [1] = molecular target: T1, RXRα phosphorylation by protein kinase A (Homo sapiens, UniProt P19793); assay: Phosphorylation of immunoprecipitated RXRα by purified PKA; assay type: biochemical; details: cells incubated with 10^-7 M ligand
# T1 construct: host or cells: HEK293
# T1 sequence (P19793 1-462): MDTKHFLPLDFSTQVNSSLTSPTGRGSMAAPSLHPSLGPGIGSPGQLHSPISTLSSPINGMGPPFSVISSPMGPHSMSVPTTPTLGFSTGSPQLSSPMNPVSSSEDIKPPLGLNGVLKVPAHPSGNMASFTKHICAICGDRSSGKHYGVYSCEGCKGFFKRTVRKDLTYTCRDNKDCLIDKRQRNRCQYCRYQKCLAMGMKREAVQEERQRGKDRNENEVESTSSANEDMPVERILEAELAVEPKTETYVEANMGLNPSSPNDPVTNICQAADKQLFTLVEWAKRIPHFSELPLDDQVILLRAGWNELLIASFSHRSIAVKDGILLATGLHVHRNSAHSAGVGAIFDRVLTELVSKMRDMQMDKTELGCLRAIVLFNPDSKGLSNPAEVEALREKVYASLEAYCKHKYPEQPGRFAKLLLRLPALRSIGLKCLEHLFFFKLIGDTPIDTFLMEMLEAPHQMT
# Protocol: Left panel: Cells were immunoprecipitated with anti-FLAG antibody, and the immunoprecipitates analyzed by SDS-PAGE and blotting with anti-PKA antibody. Right panel: Cells were immunoprecipitated with anti-PKA antibody, and the immunoprecipitates analyzed by SDS-PAGE and blotting with anti-FLAG antibody. B. Phosphorylation of RXRα by PKA. […] PKA I and PKC I indicate inhibitors of PKA and PKC, respectively.
# RXRα-containing immunoprecipitates prepared with anti-Flag antibody were incubated with purified catalytically active PKA (Upstate Biotechnology) and […]; in addition, protein kinase A inhibitor or protein kinase C inhibitor was added to some reactions as indicated. The kinase reaction products were analyzed by SDS-PAGE.
# [2] = system: MAP kinase (MAPK or ERK1/2); assay: MAP kinase phosphorylation in cells treated with RXR agonist (anti-phospho-MAPK immunoblot); assay type: cell-based
# Protocol: Cells were lysed directly with 1×SDS sample buffer and the cell lysates were separated by SDS-PAGE and immunoblotted with anti-phospho-MAPK. […] Differentiated 3T3 adipocytes were starved, stimulated, and manipulated as described above. […] Detection of MAP kinase phosphorylation was performed as described above with anti-phospho-MAPK from Promega.
# MAP kinase (MAPK or ERK1/2) is activated by phosphorylation on Thr and Tyr residues of a TEY motif by the dual-specific MAP kinase kinase (MEK). […] As further shown in FIG. 3C, the response was dose-dependent (0.01-100 nM), with maximal stimulation at 0.1 nM.
# [3] = molecular target: association between RXRα and PKA (Homo sapiens, UniProt P19793); assay: Co-immunoprecipitation of RXRα and catalytic subunit of PKA; assay type: cell-based; details: cells overexpressing PKA catalytic subunit, 10^-7 M
# Protocol: Left panel: Cells were immunoprecipitated with anti-FLAG antibody, and the immunoprecipitates analyzed by SDS-PAGE and blotting with anti-PKA antibody. Right panel: Cells were immunoprecipitated with anti-PKA antibody, and the immunoprecipitates analyzed by SDS-PAGE and blotting with anti-FLAG antibody. […] PKA I and PKC I indicate inhibitors of PKA and PKC, respectively.
# Immunoprecipitations with anti-Flag antibody were performed as described above. Immunoprecipitations with anti-PKA antibody (Transduction Laboratories; Lexington, Kentucky) were performed according to manufacturer's protocol. Western blotting with anti-PKA antibody and anti-Flag antibody also were performed according to manufacturer's protocol.
# RXRα = molecular target: T2, RXRα (Homo sapiens, UniProt P19793); assay: In vivo metabolic labeling with [32P]orthophosphate of Flag-RXR transfected HEK 293 cells; assay type: cell-based; set-up: expressed in transfected cells; host or cells: HEK 293; details: [32P]orthophosphate labeling, ligand 10 minutes
# T2 sequence (P19793 1-462): T1 sequence (P19793 1-462)
# Excerpt: (A) AGN194204-dependent protein kinase activity in Flag-RXR immunocomplexes, which were immunoprecipitated from transfected cells using antibody against the “Flag” epitope tag fused to the RXR receptor. […] Total cell lysates were immunoprecipitated with anti-Flag antibody (M2). Aliquots of the immunocomplexes were used for the in vitro kinase reaction with [γ-^32P]ATP and separated on SDS-PAGE. Phosphorylated proteins were detected by autoradiography (top panel). Additional aliquots of the immunocomplexes were subjected to immunoblotting with polyclonal anti-RXR antisera (D20; bottom panel). (B) Phosphoamino acid analysis. Flag-RXR and the 160-kDa protein were phosphorylated in vitro and separated on SDS-PAGE as described above, then transferred onto PVDF membrane, detected by autoradiography, and cut out for hydrolysis with acid (6 N HCl). The phosphorylated amino acids and standards (P-Ser, P-Thr, and P-Tyr) were separated by thin-layer chromatography. Positions of the standards P-Ser, P-Thr, and P-Tyr were visualized by ninhydrin staining and are indicated by arrows. (C) In vivo metabolic labeling of transfected HEK 293 cells. […] Cells were washed with phosphate-free medium and starved for 90 minutes before incubation with [^32P]orthophosphate for another 4 hours. […] Phosphorylated proteins were detected by autoradiography. […]
# [4] = molecular target: T3, RXRα associated protein kinase (Homo sapiens, UniProt P19793); assay: In vitro phosphorylation of exogenous protein substrates by RXR-associated kinase; assay type: cell-based; details: Flag-RXR transfected cells, 10^-7 M
# T3 sequence (P19793 1-462): T1 sequence (P19793 1-462)
# Protocol: Total cell lysates were immunoprecipitated with anti-FLAG antibody (M2). Immunoprecipitated material was used for in vitro kinas reaction with γ-^32P-ATP alone or with addition of exogenous mixed histones or myelin basic protein (MBP). The phosphorylated proteins were separated on SDS-PAGE and detected by autoradiography.
# After terminating the kinase reaction, the products were analyzed by SDS-PAGE.
# Kinase reactions with purified proteins were performed essentially as described above for synthetic peptide substrates. Briefly, immunoprecipitated complexes were resuspended in kinase assay buffer with 2 μg myelin basic protein (Sigma) or histone-M (Roche), and kinase reactions initiated by addition of 50 μM [γ-^32P]ATP (10 μCi). The reaction mixtures were then incubated at 25° C. with occasional shaking for 20 minutes, and terminated by addition of sample buffer. SDS-PAGE analysis and autoradiography were used to visualize the results.
# [5] = system: protein kinase A activity associated with RXRα (Homo sapiens); assay: PKA activity in S293 cells overexpressing the catalytic subunit of PKA; assay type: cell-based
# Excerpt: Sample 1: No ligand; immunoprecipitation with beads only. […] Sample 3: No ligand; immunoprecipitation with anti-FLAG antibody. […] Sample 5: No ligand; immunoprecipitation with beads only. […] Sample 7: No ligand; immunoprecipitation with anti-PKA antibody.
# S293 cells (HEK293 cells stably overexpressing RXRα) were transfected with the pFC-PKA expression vector encoding the catalytic subunit of protein kinase A and with Flag-tagged PH-RXRα essentially as described above. This commercially available expression vector expresses the catalytic subunit of murine protein kinase A under control of the CMV promoter (Stratagene; San Diego, Calif.).
smiles,measurement,setting,value
CC(/C=C/[C@@H]1C[C@]1(C)c1ccc2c(c1)C(C)(C)CCC2(C)C)=C\C(=O)O [AGN194204],extent of RXRα phosphorylation by purified PKA,[1],increased
same,duration of increased MAP kinase phosphorylation,[2],about 20 minutes
same,phosphorylation of MAP kinase,[2]; 3T3-L1 fibroblasts,increased phosphorylation of MAP kinase
same,concentration of maximal stimulation of MAP kinase phosphorylation,"[2]; 3T3-L1 fibroblasts, 5 minutes",0.1 nM
same,dose-dependent range of MAP kinase response,"[2]; 3T3-L1 fibroblasts, 5 minutes",10 to 100000 pM
same,time to increased MAP kinase phosphorylation,[2]; after treatment,≤ 5 min
same,phosphorylation of MAP kinase,[2]; differentiated 3T3 adipocytes,increased phosphorylation of MAP kinase
same,amount of protein kinase A associated with RXRα,[3],did not increase the amount of protein kinase A associated with receptor
same,in vivo phosphorylation of RXRα,RXRα,stimulated
same,in vitro phosphorylation of histone-M,[4],increased
same,in vitro phosphorylation of myelin basic protein (MBP),[4],dramatically increased
same,protein kinase A activity in immunoprecipitates,[5]; immunoprecipitation with anti-Flag antibody,dramatic increase
same,protein kinase A activity in immunoprecipitates,[5]; immunoprecipitation with anti-PKA antibody,only a marginal ligand-dependent increase
